Test results as given in US6586405B2, “Non-covalent inhibitors of urokinase and blood vessel formation” (Corvas International, Inc., priority 2000, dated 2003).

Assays:
Type in all cases: biochemical
Urokinase (Abbokinase) = target: T1, Urokinase (Abbokinase) (Homo sapiens, UniProt P00749); assay: Urokinase assay, chromogenic substrate S-2444; settings: Ki calculated using the IC50 value; 30 minute incubation, HBSA buffer; read-out: Ki uPA
T1 construct: purchased Abbott Laboratories (manufacturer), obtained from Priority Pharmaceuticals
Protocol: (§1) The ability of compounds of the present invention to act as selective inhibitors of urokinase catalytic activity was assessed by determining the concentration of test compound which inhibited the activity of this enzyme by 50%, (IC50), and comparing this value to that determined for all or some of the following related serine proteases: recombinant tissue plasminogen activator (rt-PA), plasmin, activated protein C, chymotrypsin, factor Xa, thrombin and trypsin.
(§2) The buffer used for all assays was HBSA (10 mM HEPES, pH 7.5, 150 mM sodium chloride, 0.1% bovine serum albumin).
(§3) The assay for IC50 determinations was conducted by combining in appropriate wells of a Corning microtiter plate, 50 microliters of HBSA, 50 microliters of the test compound at a specified concentration (covering a broad concentration range) diluted in HBSA (or HBSA alone for VO (uninhibited velocity) measurement), and 50 microliters of the enzyme diluted in HESA. Following a 30 minute incubation at ambient temperature, 50 microliters of the substrate at the concentrations specified below were added to the wells, yielding a final total volume of 200 microliters (about 4 times Km). The initial velocity of chromogenic substrate hydrolysis was measured by the change in absorbance at 405 nm using a Thermo Max® Kinetic Microplate Reader over a 5 minute period in which less than 5% of the added substrate was utilized. The concentration of added inhibitor which caused a 50% decrease in the initial rate of hydrolysis was defined as the IC50 value. Ki may be calculated from the IC50 value.
Urokinase catalytic activity was determined using the chromogenic substrate […] S-2444 (L-Pyroglutamyl-glycyl-L-arginine-p-nitroaniline hydrochloride), obtained from DiaPharma Group, Inc. Urokinase (Abbokinase), manufactured by Abbott Laboratories, was obtained from Priority Pharmaceuticals and diluted to 750 pM in the HBSA assay buffer prior to use. The assay buffer was HBS (10 mM HEPES, 150 mM sodium chloride pH 7.4) with 0.1% BSA. Ki was calculated using the IC50 value.

Human rt-PA (Activase) = target: T2, Human rt-PA (Activase) (Homo sapiens, UniProt P00750); assay: Recombinant tissue plasminogen activator (rt-PA) assay, chromogenic substrate Pefachrome t-PA; settings: 30 minute incubation, HBSA buffer, rt-PA 1.0 nM
T2 construct: purchased Genentech Inc
T2 sequence (P00750 36-562): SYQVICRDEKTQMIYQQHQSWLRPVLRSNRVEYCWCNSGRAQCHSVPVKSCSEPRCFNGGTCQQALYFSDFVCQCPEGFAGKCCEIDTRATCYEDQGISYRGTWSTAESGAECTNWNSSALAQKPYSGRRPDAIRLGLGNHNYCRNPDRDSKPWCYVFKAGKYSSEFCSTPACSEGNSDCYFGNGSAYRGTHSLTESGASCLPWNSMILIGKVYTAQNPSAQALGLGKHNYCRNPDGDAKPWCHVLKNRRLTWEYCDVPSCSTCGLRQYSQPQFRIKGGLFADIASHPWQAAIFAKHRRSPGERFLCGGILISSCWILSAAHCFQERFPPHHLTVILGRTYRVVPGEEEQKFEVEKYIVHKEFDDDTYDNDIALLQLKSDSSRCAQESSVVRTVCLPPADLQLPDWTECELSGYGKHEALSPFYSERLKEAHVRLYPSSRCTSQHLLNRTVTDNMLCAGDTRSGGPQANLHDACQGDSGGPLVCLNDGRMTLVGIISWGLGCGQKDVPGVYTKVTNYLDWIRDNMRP
Protocol: as §1, §2, §3
rt-PA catalytic activity was determined using the substrate, Pefachrome t-PA (CH3SO2-D-hexahydrotyrosine-glycyl-L-arginine-p-nitroaniline, obtained from Pentapharm Ltd.). The substrate was made up in deionized water followed by dilution in HBSA prior to the assay in which the final concentration was 500 micromolar (about 3-times Km). Human rt-PA (Activase®) was obtained from Genentech Inc. The enzyme was reconstituted in deionized water and diluted into HBSA prior to the assay in which the final concentration was 1.0 nM.

human plasmin = target: T3, human plasmin (Homo sapiens, UniProt P00747); assay: Plasmin assay, chromogenic substrate S-2366; settings: 30 minute incubation, HBSA buffer, plasmin 1.0 nM
T3 construct: Purified human plasmin was obtained from Enzyme Research Laboratories, Inc; purchased Enzyme Research Laboratories, Inc
T3 sequence (P00747 581-810 limits assumed): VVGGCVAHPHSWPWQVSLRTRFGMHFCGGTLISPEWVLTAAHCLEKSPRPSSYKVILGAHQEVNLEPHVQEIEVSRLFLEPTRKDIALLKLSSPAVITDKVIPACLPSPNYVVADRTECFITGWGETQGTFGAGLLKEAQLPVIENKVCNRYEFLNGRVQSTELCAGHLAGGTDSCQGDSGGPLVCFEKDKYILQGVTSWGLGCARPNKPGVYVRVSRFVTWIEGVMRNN
T3 sequence (P00747 97-580 partner limits assumed): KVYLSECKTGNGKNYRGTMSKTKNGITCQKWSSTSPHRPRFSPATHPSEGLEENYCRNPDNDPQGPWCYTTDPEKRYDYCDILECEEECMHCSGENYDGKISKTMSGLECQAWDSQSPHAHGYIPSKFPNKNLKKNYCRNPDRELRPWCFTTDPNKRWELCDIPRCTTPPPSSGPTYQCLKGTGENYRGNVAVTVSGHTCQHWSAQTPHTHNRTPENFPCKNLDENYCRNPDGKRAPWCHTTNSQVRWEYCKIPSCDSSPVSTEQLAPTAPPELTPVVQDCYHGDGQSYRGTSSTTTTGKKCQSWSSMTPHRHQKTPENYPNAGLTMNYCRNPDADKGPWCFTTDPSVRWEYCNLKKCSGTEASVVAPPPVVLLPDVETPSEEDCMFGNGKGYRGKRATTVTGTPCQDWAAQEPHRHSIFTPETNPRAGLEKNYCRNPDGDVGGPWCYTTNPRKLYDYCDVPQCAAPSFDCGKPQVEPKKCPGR
Protocol: as §1, §2, §3
Plasmin catalytic activity was determined using the chromogenic substrate, S-2366 [L-pyroglutamyl-L-prolyl-L-arginine-p-nitroaniline hydrochloride], which was obtained from DiaPharma Group. The substrate was made up in deionized water followed by dilution in HBSA prior to the assay in which the final concentration was 300 micromolar (about 2.5-times Km). Purified human plasmin was obtained from Enzyme Research Laboratories, Inc. The enzyme was diluted into HBSA prior to assay in which the final concentration was 1.0 nM.

SMILES	Ki (Urokinase (Abbokinase)) [µM]	IC50 (Human rt-PA (Activase)) [µM]	IC50 (human plasmin) [µM]
CCCCS(=O)(=O)NC(CO)C(=O)N1CC2CC2C1C(=O)NCc1ccc(C(=N)N)cc1 (mixture of isomers) [AA]	< 0.1	> 2.5	> 2.5
N=C(N)c1ccc(CNC(=O)C2C3CC3CN2C(=O)C(CO)NS(=O)(=O)Cc2ccccc2)cc1 (stereo not drawn) [AD]	< 0.1	> 2.5	0.25 to 2.5
CCCCS(=O)(=O)NC(CO)C(=O)NC(C)C(=O)NCc1ccc(NC(=N)N)cc1 (stereo not drawn) [AG]	< 0.1	> 2.5	> 2.5
C[C@H](NC(=O)[C@@H](CO)NS(=O)(=O)Cc1ccccc1)C(=O)NCc1ccc(C(=N)N)s1 [AH]	< 0.1	0.25 to 2.5	> 2.5
C[C@H](NC(=O)[C@@H](CO)NS(=O)(=O)c1ccc2ccccc2c1)C(=O)NCc1ccc(C(=N)N)cc1 [AI]	0.1 to 0.25	> 2.5	> 2.5
C[C@H](NC(=O)[C@@H](CO)NS(=O)(=O)Cc1ccccc1)C(=O)NCc1ccc(C(=N)N)cc1 [AJ]	–	> 2.5	> 2.5
C[C@H](NC(=O)[C@@H](C)NS(=O)(=O)Cc1ccccc1)C(=O)NCc1ccc(C(=N)N)cc1 [AK]	< 0.1	> 2.5	> 2.5
C=CC[C@H](NC(=O)[C@@H](CO)NS(=O)(=O)Cc1ccccc1)C(=O)NCc1ccc(C(=N)N)cc1 [AL]	< 0.1	> 2.5	> 2.5
C[C@H](NC(=O)[C@@H](CO)NS(=O)(=O)Cc1ccccc1)C(=O)NCc1ccc(NC(=N)NC(=O)OC(C)(C)C)cc1 [AM]	< 0.1	> 2.5	> 2.5
C[C@H](NC(=O)[C@@H](CO)NS(=O)(=O)Cc1ccccc1)C(=O)NCc1ccc(NC(=N)N)cc1 [AN]	< 0.1	> 2.5	> 2.5
C[C@H](NC(=O)[C@@H](CO)NS(=O)(=O)Cc1ccccc1)C(=O)NCc1ccc(C(=N)N)cn1 [AO]	0.1 to 0.25	> 2.5	> 2.5
C[C@@H](NC(=O)[C@@H](CO)NS(=O)(=O)c1cccc2ccccc12)C(=O)NCc1ccc(C(=N)N)cc1 [AP]	< 0.1	> 2.5	> 2.5
N=C(N)Nc1ccc(CNC(=O)Cn2cccc(NS(=O)(=O)Cc3ccccc3)c2=O)cc1 [AR]	0.25 to 2.5	> 2.5	> 2.5
CCC[C@H](NC(=O)[C@@H](CO)NS(=O)(=O)Cc1ccccc1)C(=O)NCc1ccc(C(=N)N)cc1 [AS]	< 0.1	> 2.5	> 2.5
CC[C@H](NC(=O)[C@@H](CO)NS(=O)(=O)Cc1ccccc1)C(=O)NCc1ccc(C(=N)N)cc1 [AT]	< 0.1	> 2.5	> 2.5
C[C@H](NC(=O)[C@@H](CO)NS(C)(=O)=O)C(=O)NCc1ccc(C(=N)N)cc1 [AU]	0.25 to 2.5	> 2.5	> 2.5
N=C(N)Nc1ccc(CNC(=O)[C@@H]2C=CCN2C(=O)[C@@H](CO)NS(=O)(=O)Cc2ccccc2)cc1 [AV]	< 0.1	> 2.5	> 2.5

More lines, now with the values ahead:

Ki (Urokinase (Abbokinase)) [µM]	IC50 (Human rt-PA (Activase)) [µM]	IC50 (human plasmin) [µM]	SMILES
< 0.1	> 2.5	> 2.5	CCCCS(=O)(=O)NC(CO)C(=O)N1CCCC1C(=O)NCc1ccc(C(=N)N)cc1 (mixture of isomers) [N]
< 0.1	> 2.5	> 2.5	CCCCS(=O)(=O)NC(CO)C(=O)N1CC=CC1C(=O)NCc1ccc(C(=N)N)cc1 (mixture of isomers) [O]
< 0.1	0.25 to 2.5	0.25 to 2.5	N=C(N)c1ccc(CNC(=O)C2C=CCN2C(=O)C(CO)NS(=O)(=O)Cc2ccccc2)s1 (mixture of isomers) [U]
0.25 to 2.5	> 2.5	> 2.5	C[C@H](NC(=O)[C@@H](CO)NS(=O)(=O)Cc1ccccc1)C(=O)NCc1ccc(NC(=N)N)s1 [AW]
< 0.1	> 2.5	> 2.5	CCCCS(=O)(=O)N[C@H](CO)C(=O)N[C@@H](C)C(=O)NCc1ccc(C(=N)N)cc1 [A]
0.25 to 2.5	> 2.5	> 2.5	CCCCS(=O)(=O)N[C@H](CO)C(=O)N[C@@H](C)C(=O)NCCCCNC(=N)N [B]
< 0.1	> 2.5	–	N=C(N)c1ccc(CNC(=O)[C@@H]2C=CCN2C(=O)[C@@H](CO)NS(=O)(=O)CCc2ccccc2)cc1 [F]
–	> 2.5	0.25 to 2.5	N=C(N)c1ccc(CNC(=O)[C@@H]2CCCN2C(=O)[C@@H](CO)NS(=O)(=O)Cc2ccccc2)cc1 [J]
< 0.1	> 2.5	0.25 to 2.5	N=C(N)c1ccc(CNC(=O)[C@@H]2C=CCN2C(=O)[C@@H](CO)NS(=O)(=O)Cc2ccccc2)cc1 [K]
< 0.1	> 2.5	> 2.5	CCCCS(=O)(=O)N[C@H](CO)C(=O)N[C@@H](C)C(=O)NCc1ccc(C(=N)N)s1 [L]
< 0.1	> 2.5	> 2.5	CCCCS(=O)(=O)N[C@H](CO)C(=O)N1CC2CC2C1C(=O)NCc1ccc(C(=N)N)cc1 (stereo partly drawn) [Q]
< 0.1	> 2.5	> 2.5	N=C(N)c1ccc(CNC(=O)[C@@H]2CCN2C(=O)[C@@H](CO)NS(=O)(=O)Cc2ccccc2)cc1 [R]
0.1 to 0.25	> 2.5	> 2.5	N=C(N)c1ccc(CNC(=O)[C@@H]2CCN2C(=O)[C@@H](CO)NS(=O)(=O)CCc2ccccc2)cc1 [S]
< 0.1	> 2.5	0.25 to 2.5	N=C(N)c1ccc(CNC(=O)[C@@H]2C3CC3CN2C(=O)[C@@H](CO)NS(=O)(=O)Cc2ccccc2)cc1 (stereo partly drawn) [T]
< 0.1	> 2.5	> 2.5	CCCCS(=O)(=O)N[C@H](CO)C(=O)N1CCC1C(=O)NCc1ccc(C(=N)N)cc1 (stereo partly drawn) [Z]
